Calls of active or inactive are those of the source. The calls are words filed in the database; no cut-off is given here.
Legend:
AHH-1 [1] = experiment: Cytotoxicity against human AHH-1 cells assessed as inhibition of cell growth incubated for 24 hrs by CCK-8 assay; type: functional, cell-based; settings: AHH-1, 24 h
AHH-1 [2] = experiment: Anti-iradiation activity against human AHH-1 cells assessed as cell viability at 10 micromol preincubated with compound for 24 hrs followed by irradiation with 8 Gy and measured after 24 hrs by CCK-8 assay; type: functional; settings: dose 10 µmol; time 48 hrs
Mus musculus [3] = experiment: Radioprotective activity in C57BL/6J mouse assessed as survival rate at 30 mg/kg, ip preincubated with compound for 15 to 1440 mins followed by irradiation and measured at day 30; type: functional; settings: light or radiation study, time 15-44640 min
AHH-1 [4] = experiment: Induction of apoptosis in human AHH-1 cells assessed as viable cells preincubated with compound for 24 hrs followed by irradiation with 4 Gy and measured after 24 hrs of radiation by Annexin V-FITC/PI staining based flow cytometry analysis (reference value: 66.9 %); type: functional; settings: time 48 hrs
AHH-1 [5] = experiment: Induction of apoptosis in human AHH-1 cells assessed as early apoptotic cells preincubated with compound for 24 hrs followed by irradiation with 6 Gy and measured after 24 hrs of radiation by Annexin V-FITC/PI staining based flow cytometry analysis (reference value: 14.1%); type: functional; settings: time 48 hrs
AHH-1 [6] = experiment: Induction of apoptosis in human AHH-1 cells assessed as early apoptotic cells preincubated with compound for 24 hrs followed by irradiation with 8 Gy and measured after 24 hrs of radiation by Annexin V-FITC/PI staining based flow cytometry analysis (reference value: 16.5%); type: functional; settings: time 48 hrs
AHH-1 [7] = experiment: Induction of apoptosis in human AHH-1 cells assessed as late apoptotic cells preincubated with compound for 24 hrs followed by irradiation with 8 Gy and measured after 24 hrs of radiation by Annexin V-FITC/PI staining based flow cytometry analysis (reference value: 33.6%); type: functional; settings: time 48 hrs
Mus musculus [8] = experiment: Radioprotective activity in irradiated C57BL/6J mouse model assessed as increase in platelets count at 300 mg/kg, ip preincubated with compound for 15 to 1440 mins followed by irradiation with 6.5 Gy and measured after 2 days of radiation; type: functional, organism-based; settings: time 15-4320 min
AHH-1 [9] = experiment: Induction of apoptosis in human AHH-1 cells assessed as late apoptotic cells preincubated with compound for 24 hrs followed by irradiation with 6 Gy and measured after 24 hrs of radiation by Annexin V-FITC/PI staining based flow cytometry analysis (reference value: 29.8%); type: functional; settings: time 48 hrs
Mus musculus [10] = experiment: Radioprotective activity in irradiated C57BL/6J mouse model assessed as increase in HGB count at 300 mg/kg, ip preincubated with compound for 15 to 1440 mins followed by irradiation with 6.5 Gy and measured after 13 days of radiation; type: functional, organism-based; settings: time 15-20160 min
AHH-1 [11] = experiment: Induction of apoptosis in human AHH-1 cells assessed as necrotic cells preincubated with compound for 24 hrs followed by irradiation with 4 Gy and measured after 24 hrs of radiation by Annexin V-FITC/PI staining based flow cytometry analysis (reference value: 1.06%); type: functional; settings: time 48 hrs
AHH-1 [12] = experiment: Induction of apoptosis in human AHH-1 cells assessed as late apoptotic cells preincubated with compound for 24 hrs followed by irradiation with 4 Gy and measured after 24 hrs of radiation by Annexin V-FITC/PI staining based flow cytometry analysis (reference value: 17.7%); type: functional; settings: time 48 hrs
Mus musculus [13] = experiment: Radioprotective activity in irradiated C57BL/6J mouse model assessed as increase in RBC count at 300 mg/kg, ip preincubated with compound for 15 to 1440 mins followed by irradiation with 6.5 Gy and measured after 13 days of radiation; type: functional, organism-based; settings: Erythrocyte, time 15-20160 min
AHH-1 [14] = experiment: Induction of apoptosis in human AHH-1 cells assessed as viable cells preincubated with compound for 24 hrs followed by irradiation with 8 Gy and measured after 24 hrs of radiation by Annexin V-FITC/PI staining based flow cytometry analysis (reference value: 45.1%); type: functional; settings: time 48 hrs
AHH-1 [15] = experiment: Induction of apoptosis in human AHH-1 cells assessed as necrotic cells preincubated with compound for 24 hrs followed by irradiation with 6 Gy and measured after 24 hrs of radiation by Annexin V-FITC/PI staining based flow cytometry analysis (reference value: 3.71%); type: functional; settings: time 48 hrs
AHH-1 [16] = experiment: Induction of apoptosis in human AHH-1 cells assessed as necrotic cells preincubated with compound for 24 hrs followed by irradiation with 8 Gy and measured after 24 hrs of radiation by Annexin V-FITC/PI staining based flow cytometry analysis (reference value: 4.86%); type: functional; settings: time 48 hrs
Mus musculus [17] = experiment: Radioprotective activity in irradiated C57BL/6J mouse model assessed as increase in WBC count at 300 mg/kg, ip preincubated with compound for 15 to 1440 mins followed by irradiation with 6.5 Gy and measured on day 1 (reference value: 43.39%); type: functional; settings: time 15-2880 min
Mus musculus [18] = experiment: Radioprotective activity in irradiated C57BL/6J mouse model assessed as increase in platelets count at 300 mg/kg, ip preincubated with compound for 15 to 1440 mins followed by irradiation with 6.5 Gy and measured after 3 to 10 days of radiation; type: functional, organism-based
AHH-1 [19] = experiment: Induction of apoptosis in human AHH-1 cells assessed as viable cells preincubated with compound for 24 hrs followed by irradiation with 6 Gy and measured after 24 hrs of radiation by Annexin V-FITC/PI staining based flow cytometry analysis (reference value: 52.3%); type: functional; settings: time 48 hrs
Mus musculus [20] = experiment: Radioprotective activity in irradiated C57BL/6J mouse model assessed as increase in RBC count at 300 mg/kg, ip preincubated with compound for 15 to 1440 mins followed by irradiation with 6.5 Gy and measured after 10 to 13 days of radiation; type: functional, organism-based; settings: Erythrocyte
AHH-1 [21] = experiment: Induction of apoptosis in human AHH-1 cells assessed as early apoptotic cells preincubated with compound for 24 hrs followed by irradiation with 4 Gy and measured after 24 hrs of radiation by Annexin V-FITC/PI staining based flow cytometry analysis (reference value: 14.3%); type: functional; settings: time 48 hrs
Mus musculus [22] = experiment: Radioprotective activity in irradiated C57BL/6J mouse model assessed as increase in HGB count at 300 mg/kg, ip preincubated with compound for 15 to 1440 mins followed by irradiation with 6.5 Gy and measured after 1 to 10 days of radiation; type: functional, organism-based
Mus musculus [23] = experiment: Radioprotective activity in irradiated C57BL/6J mouse model assessed as increase in platelets count at 300 mg/kg, ip preincubated with compound for 15 to 1440 mins followed by irradiation with 6.5 Gy and measured after 10 to 13 days of radiation; type: functional, organism-based

SMILES: Brc1ccc(CSc2ccc3ccccc3n2)cc1
- IC50 (AHH-1 [1]): 174 µM

SMILES: O=S(=O)(Cc1ccc(Br)cc1)c1ccc2ccccc2n1
- IC50 (AHH-1 [1]): > 640 µM

SMILES: O=S(=O)(Cc1ccc(Br)cc1)c1ccc2cc(Cl)ccc2n1
- IC50 (AHH-1 [1]): > 640 µM

SMILES: Clc1ccc(CSc2ccc3cc(Br)ccc3n2)cc1
- IC50 (AHH-1 [1]): 215 µM

SMILES: [O-][S+](Cc1ccc(Br)cc1)c1ccc2ccccc2n1 (centres undefined)
- IC50 (AHH-1 [1]): > 640 µM

SMILES: N#Cc1ccc(CS(=O)(=O)c2ccc3cc(Cl)ccc3n2)cc1
- IC50 (AHH-1 [1]): > 640 µM

SMILES: O=C(O)c1ccc(CSc2ccc3cc(Cl)ccc3n2)cc1
- IC50 (AHH-1 [1]): > 640 µM

SMILES: [O-][S+](Cc1ccc(F)cc1)c1ccc2cc(F)ccc2n1 (centres undefined)
- IC50 (AHH-1 [1]): > 640 µM

SMILES: N#Cc1ccc(C[S+]([O-])c2ccc3cc(Cl)ccc3n2)cc1 (centres undefined)
- IC50 (AHH-1 [1]): > 640 µM

SMILES: O=S(=O)(Cc1ccc(F)cc1)c1ccc2cc(Br)ccc2n1
- IC50 (AHH-1 [1]): > 640 µM

SMILES: O=S(=O)(Cc1ccc(Cl)cc1)c1ccc2cc(Br)ccc2n1
- IC50 (AHH-1 [1]): > 640 µM
- Activity (AHH-1 [2]): 27.81%

SMILES: Fc1ccc(CSc2ccc3cc(Cl)ccc3n2)cc1
- IC50 (AHH-1 [1]): 153 µM

SMILES: O=S(=O)(Cc1ccccc1)c1ccc2cc(F)ccc2n1
- IC50 (AHH-1 [1]): > 640 µM

SMILES: O=C(O)c1ccc(C[S+]([O-])c2ccc3cc(F)ccc3n2)cc1 (centres undefined)
- survival at 30 mg/kg (Mus musculus [3]): 50%
- IC50 (AHH-1 [1]): > 640 µM
- Activity (AHH-1 [2]): 30.18%

SMILES: O=S(=O)(Cc1ccc(Br)cc1)c1ccc2cc(Br)ccc2n1
- IC50 (AHH-1 [1]): > 640 µM

SMILES: O=S(=O)(Cc1ccc(Cl)cc1)c1ccc2cc(Cl)ccc2n1
- IC50 (AHH-1 [1]): > 640 µM

SMILES: [O-][S+](Cc1ccc(Br)cc1)c1ccc2cc(Cl)ccc2n1 (centres undefined)
- IC50 (AHH-1 [1]): > 640 µM

SMILES: Fc1ccc(CSc2ccc3cc(F)ccc3n2)cc1
- IC50 (AHH-1 [1]): > 640 µM

SMILES: Clc1ccc(CSc2ccc3ccccc3n2)cc1
- IC50 (AHH-1 [1]): 73 µM

SMILES: O=S(=O)(Cc1ccccc1)c1ccc2cc(Br)ccc2n1
- IC50 (AHH-1 [1]): 169 µM

SMILES: [O-][S+](Cc1ccc(Cl)cc1)c1ccc2ccccc2n1 (centres undefined)
- IC50 (AHH-1 [1]): 97 µM

SMILES: O=S(=O)(Cc1ccc(F)cc1)c1ccc2cc(Cl)ccc2n1
- IC50 (AHH-1 [1]): > 640 µM

SMILES: N#Cc1ccc(C[S+]([O-])c2ccc3cc(Br)ccc3n2)cc1 (centres undefined)
- IC50 (AHH-1 [1]): 212 µM

SMILES: O=S(=O)(Cc1ccc(Cl)cc1)c1ccc2ccccc2n1
- IC50 (AHH-1 [1]): 129 µM

SMILES: O=S(=O)(Cc1ccc(F)cc1)c1ccc2cc(F)ccc2n1
- IC50 (AHH-1 [1]): > 640 µM
- Activity (AHH-1 [2]): 27.51%

SMILES: O=C([O-])c1ccc(/C=C/S(=O)(=O)Cc2ccc(Cl)cc2)cc1.[Na+] [RECILISIB SODIUM]
- Activity (AHH-1 [4]): 47.5%
- Activity (AHH-1 [5]): 14.8%
- Activity (AHH-1 [6]): 16.4%
- Activity (AHH-1 [7]): 27.3%
- Activity (Mus musculus [8]): Active
- survival at 30 mg/kg (Mus musculus [3]): 40%
- Activity (AHH-1 [9]): 28.4%
- IC50 (AHH-1 [1]): > 640 µM
- Activity (Mus musculus [10]): Active
- Activity (AHH-1 [11]): 4.82%
- Activity (AHH-1 [12]): 31.1%
- Activity (Mus musculus [13]): Active
- Activity (AHH-1 [14]): 48%
- Activity (AHH-1 [15]): 7.68%
- Activity (AHH-1 [16]): 8.35%
- Activity (Mus musculus [17]): 47.73%
- Activity (Mus musculus [18]): inactive
- Activity (AHH-1 [19]): 49.2%
- Activity (Mus musculus [20]): Active
- Activity (AHH-1 [21]): 16.5%
- Activity (Mus musculus [22]): inactive
- Activity (Mus musculus [23]): Active

SMILES: Brc1ccc(CSc2ccc3cc(Br)ccc3n2)cc1
- IC50 (AHH-1 [1]): > 640 µM

SMILES: [O-][S+](Cc1ccc(F)cc1)c1ccc2ccccc2n1 (centres undefined)
- IC50 (AHH-1 [1]): > 640 µM

SMILES: [O-][S+](Cc1ccc(Cl)cc1)c1ccc2cc(Br)ccc2n1 (centres undefined)
- IC50 (AHH-1 [1]): 224 µM
- Activity (AHH-1 [2]): 30.63%

SMILES: O=C(O)c1ccc(CS(=O)(=O)c2ccc3cc(F)ccc3n2)cc1
- IC50 (AHH-1 [1]): > 640 µM

SMILES: N#Cc1ccc(CSc2ccc3cc(Cl)ccc3n2)cc1
- IC50 (AHH-1 [1]): > 640 µM

SMILES: Fc1ccc2nc(SCc3ccccc3)ccc2c1
- IC50 (AHH-1 [1]): > 640 µM

SMILES: [O-][S+](Cc1ccc(F)cc1)c1ccc2cc(Cl)ccc2n1 (centres undefined)
- IC50 (AHH-1 [1]): > 640 µM

SMILES: Clc1ccc(CSc2ccc3cc(Cl)ccc3n2)cc1
- IC50 (AHH-1 [1]): > 640 µM

SMILES: N#Cc1ccc(CSc2ccc3cc(Br)ccc3n2)cc1
- IC50 (AHH-1 [1]): 146 µM

SMILES: [O-][S+](Cc1ccc(Cl)cc1)c1ccc2cc(Cl)ccc2n1 (centres undefined)
- IC50 (AHH-1 [1]): > 640 µM

SMILES: [O-][S+](Cc1ccccc1)c1ccc2cc(Br)ccc2n1 (centres undefined)
- IC50 (AHH-1 [1]): > 640 µM

SMILES: [O-][S+](Cc1ccc(Br)cc1)c1ccc2cc(Br)ccc2n1 (centres undefined)
- IC50 (AHH-1 [1]): > 640 µM

SMILES: Clc1ccc2nc(SCc3ccc(Br)cc3)ccc2c1
- IC50 (AHH-1 [1]): > 640 µM

SMILES: Fc1ccc(CSc2ccc3ccccc3n2)cc1
- IC50 (AHH-1 [1]): > 640 µM

SMILES: Fc1ccc(CSc2ccc3cc(Br)ccc3n2)cc1
- IC50 (AHH-1 [1]): > 640 µM
- Activity (AHH-1 [2]): 26.21%

SMILES: Brc1ccc2nc(SCc3ccccc3)ccc2c1
- IC50 (AHH-1 [1]): > 640 µM
